From publication PMC3344892, “NAD-Independent L-Lactate Dehydrogenase Is Required for L-Lactate Utilization in Pseudomonas stutzeri SDM” (PLoS ONE, 2012)

Key:
[1] = target: T1, L-iLDH (NAD-independent L-lactate dehydrogenase) from P. stutzeri SDM (Stutzerimonas stutzeri, UniProt I1SLB1); assay: HPLC of flavin released by boiling; UV-visible spectrum; type: binding; conditions: native enzyme purified from membrane; recombinant enzyme similar; one FMN per subunit
T1 construct: gene lldD; full-length lldD in pETDuet-1 (HindIII/XhoI), expressed in E. coli C43(DE3), HisTrap purified (tag not described); also purified natively from membrane with Triton X-100; one FMN per subunit
T1 sequence (I1SLB1 1-391): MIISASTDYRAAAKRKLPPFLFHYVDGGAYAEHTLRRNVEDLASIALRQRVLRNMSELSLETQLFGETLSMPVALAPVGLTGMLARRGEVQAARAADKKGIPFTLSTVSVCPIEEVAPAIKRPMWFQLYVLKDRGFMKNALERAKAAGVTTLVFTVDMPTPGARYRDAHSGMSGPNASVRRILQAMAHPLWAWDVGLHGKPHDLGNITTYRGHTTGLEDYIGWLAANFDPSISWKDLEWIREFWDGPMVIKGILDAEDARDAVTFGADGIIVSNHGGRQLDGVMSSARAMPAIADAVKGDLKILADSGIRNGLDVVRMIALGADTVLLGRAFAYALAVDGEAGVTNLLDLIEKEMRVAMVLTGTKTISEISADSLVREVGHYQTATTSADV

[2] = target: T1, L-iLDH (NAD-independent L-lactate dehydrogenase) from P. stutzeri SDM; assay: MTT reduction at […] nm, double-reciprocal plots; type: biochemical
purified protein [3] = substrate: C[C@H](O)C(=O)O; assay: purified protein; type: biochemical, Stutzerimonas stutzeri; conditions: apparent, fixed 0.2 mM MTT as electron acceptor, 50 mM Tris-HCl pH 7.5, 30°C
purified protein [4] = substrate: CC[C@H](O)C(=O)O; assay: purified protein; type: biochemical, Stutzerimonas stutzeri; conditions: apparent, fixed 0.2 mM MTT as electron acceptor, 50 mM Tris-HCl pH 7.5, 30°C

Molecule: Cc1cc2nc3c(=O)[nH]c(=O)nc-3n(C[C@H](O)[C@H](O)[C@H](O)COP(=O)(O)O)c2cc1C [FMN]
- HPLC of flavin released by boiling; UV-visible spectrum [1]: the native enzyme contains one FMN per subunit

Molecule: O=C(O)C(=O)O [oxalate]
- Ki [2]: 1.9 ± 0.1 mM

Molecule: NC(=O)C(=O)O [oxamate]
- Ki [2]: 29 ± 1.7 mM

B1: L-iLDH (NAD-independent L-lactate dehydrogenase) from P. stutzeri SDM (Stutzerimonas stutzeri) (protein)
chain: T1 sequence (I1SLB1 1-391)
notes: full-length lldD in pETDuet-1 (HindIII/XhoI), expressed in E. coli C43(DE3), HisTrap purified (tag not described); also purified natively from membrane with Triton X-100; one FMN per subunit
- Km (purified protein [3]): 29 ± 0.65 µM
- Km (purified protein [4]): 99 ± 3.9 µM
